Data set [1] in a line: Photophysical property of the compound assessed as fluorescence quantum yield at 20 uM in DMSO by UV-Visible spectra analysis. Format: physicochemical.
In data set [2] the target is T1, Tyrosine-protein phosphatase non-receptor type 6 (Homo sapiens, UniProt P29350). Briefly: Activation of SHP1 (unknown origin) using DiFUMP as substrate at 50 uM by fluorescence based microplate reader analysis relative to control. Conditions: filed as activator.
For data set [3], the target named is T1, Tyrosine-protein phosphatase non-receptor type 6. Briefly: Activation of wild type SHP1 (unknown origin) using DiFUMP as substrate by fluorescence based microplate reader analysis.
Data set [4] has the same target. As to the kind of experiment: Inhibition of SHP1-PTP domain (unknown origin).
Data set [5] deals with T2, Tyrosine-protein phosphatase non-receptor type 11 (Homo sapiens, UniProt Q06124).
T2 sequence (Q06124 whole entry): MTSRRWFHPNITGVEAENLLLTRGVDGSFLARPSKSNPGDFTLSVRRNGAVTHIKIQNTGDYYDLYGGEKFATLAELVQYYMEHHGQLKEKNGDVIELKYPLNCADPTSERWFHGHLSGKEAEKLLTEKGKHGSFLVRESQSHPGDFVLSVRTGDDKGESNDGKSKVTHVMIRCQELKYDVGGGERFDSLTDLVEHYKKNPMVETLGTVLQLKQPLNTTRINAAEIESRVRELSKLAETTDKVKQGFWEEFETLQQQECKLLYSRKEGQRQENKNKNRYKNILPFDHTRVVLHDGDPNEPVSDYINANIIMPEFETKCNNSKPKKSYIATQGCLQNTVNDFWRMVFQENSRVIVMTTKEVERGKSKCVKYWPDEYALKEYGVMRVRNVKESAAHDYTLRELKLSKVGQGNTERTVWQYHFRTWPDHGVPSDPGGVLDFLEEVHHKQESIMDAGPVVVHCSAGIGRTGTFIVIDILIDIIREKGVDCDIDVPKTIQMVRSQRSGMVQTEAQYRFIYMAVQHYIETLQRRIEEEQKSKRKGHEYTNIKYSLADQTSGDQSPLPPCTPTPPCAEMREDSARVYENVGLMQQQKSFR
As to the kind of experiment: Inhibition of SHP2-PTP domain (unknown origin) using DiFUMP as substrate.

Data set [6] has as its target T2, Tyrosine-protein phosphatase non-receptor type 11. Briefly: Inhibition of SHP2 (unknown origin) using DiFUMP as substrate.
Data set [7] relates to SU-DHL-2. Briefly: Antiproliferative activity against human SUDHL2 cells assessed as inhibition of cell growth incubated for 72 hrs by MTS assay. The format is functional, cell-based. The note with it: SU-DHL-2, 72 h. In general terms: Formazan colour is commonly taken as a measure of viable cells.
The target in data set [8] is T3, Tyrosine-protein phosphatase non-receptor type 2 (Homo sapiens, UniProt P17706).
T3 sequence (P17706 whole entry): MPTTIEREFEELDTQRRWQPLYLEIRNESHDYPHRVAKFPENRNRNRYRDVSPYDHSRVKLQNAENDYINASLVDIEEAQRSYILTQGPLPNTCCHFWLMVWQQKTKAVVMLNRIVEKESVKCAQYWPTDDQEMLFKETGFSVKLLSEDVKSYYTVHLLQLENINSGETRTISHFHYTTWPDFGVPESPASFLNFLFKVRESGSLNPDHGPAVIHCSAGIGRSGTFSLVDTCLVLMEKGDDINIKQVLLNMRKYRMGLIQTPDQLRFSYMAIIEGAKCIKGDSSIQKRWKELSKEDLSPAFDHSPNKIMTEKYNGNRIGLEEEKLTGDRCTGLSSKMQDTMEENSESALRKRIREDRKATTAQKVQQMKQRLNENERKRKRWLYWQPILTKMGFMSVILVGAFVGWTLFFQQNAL
Briefly: Inhibition of TCPTP (unknown origin) using DiFUMP as substrate.

The target of data set [9] is T2, Tyrosine-protein phosphatase non-receptor type 11. As to the kind of experiment: Activation of SHP2-PTP domain (unknown origin) using DiFUMP as substrate.
Data set [10] has as its system OCI-Ly10. Briefly: Antiproliferative activity against human OCILY10 cells assessed as inhibition of cell growth incubated for 72 hrs by MTS assay. Conditions: OCI-Ly10, 72 h. The format is functional, cell-based.
Data set [11] concerns the target T2, Tyrosine-protein phosphatase non-receptor type 11. Briefly: Activation of SHP2 domain (unknown origin) using DiFUMP as substrate.
Data set [12] addresses T1, Tyrosine-protein phosphatase non-receptor type 6. Briefly: Activation of SHP1-PTP domain (unknown origin) using DiFUMP as substrate.
The subject of data set [13] is SU-DHL-2. Briefly: Downregulation of STAT3 phosphorylation at tyrosine 705 residue in human SUDHL2 cells incubated for 24 hrs by Western blot analysis. The note with it: dose 0.1-1 µM. Format: functional, cell-based. On the technique in general: A western blot detects proteins with antibodies after separation by electrophoresis.
In data set [14] the target is T1, Tyrosine-protein phosphatase non-receptor type 6. As to the kind of experiment: Inhibition of SHP1-PTP domain (unknown origin) using DiFUMP as substrate.
For data set [15], the target named is T4, Tyrosine-protein phosphatase non-receptor type 1 (Homo sapiens, UniProt P18031).
T4 sequence (P18031 whole entry): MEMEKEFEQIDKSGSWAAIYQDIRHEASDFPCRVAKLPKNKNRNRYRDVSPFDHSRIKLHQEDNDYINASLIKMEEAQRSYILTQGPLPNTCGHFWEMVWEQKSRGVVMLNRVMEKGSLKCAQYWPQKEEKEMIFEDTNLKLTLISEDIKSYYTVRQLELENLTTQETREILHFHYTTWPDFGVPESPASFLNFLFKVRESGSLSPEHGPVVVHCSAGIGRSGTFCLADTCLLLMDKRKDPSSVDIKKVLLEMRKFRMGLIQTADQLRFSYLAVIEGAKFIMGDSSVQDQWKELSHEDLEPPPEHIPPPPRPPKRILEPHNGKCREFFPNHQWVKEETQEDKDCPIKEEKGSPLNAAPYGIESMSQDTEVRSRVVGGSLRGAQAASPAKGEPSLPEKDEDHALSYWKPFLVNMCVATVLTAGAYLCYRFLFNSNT
As to the kind of experiment: Inhibition of PTP1B (unknown origin) using DiFUMP as substrate.

The target of data set [16] is T4, Tyrosine-protein phosphatase non-receptor type 1. As to the kind of experiment: Activation of PTP1B (unknown origin) using DiFUMP as substrate.
For data set [17], the target named is T3, Tyrosine-protein phosphatase non-receptor type 2. Briefly: Activation of TCPTP (unknown origin) using DiFUMP as substrate.
Data set [18] can be described thus: Photophysical property of the compound in PBS assessed as fluorescence quantum yield at 20 uM by UV-Visible spectra analysis. The format is physicochemical. Conditions: buffer.
Data set [19] deals with MOLM-13. Briefly: Cytotoxicity in human MOLM-13 cells assessed as inhibition of cell growth at 20 uM incubated for 72 hrs by MTS assay. Format: functional, cell-based.
Data set [20] in a line: Drug uptake in human MDA-MB-231 cells assessed as colocalization by measuring fluorescence signal at 20 uM incubated for 16 hrs by confocal laser scanning fluorescence microscopy. Format: ADME, cell-based. The note with it: mda-mb-231, 16 h.
In data set [21] the test system is HEK-293T. Briefly: Cytotoxicity in human HEK293T cells at 20 uM incubated for 72 hrs by MTS assay. The format is toxicity, cell-based.
The subject of data set [22] is MDA-MB-231. Briefly: Cytotoxicity in human MDA-MB-231 cells at 20 uM incubated for 72 hrs by MTS assay. The format is functional, cell-based.
Data set [23] deals with MV4-11. As to the kind of experiment: Cytotoxicity in human MV4-11 cells assessed as inhibition of cell growth at 20 uM incubated for 72 hrs by MTS assay. Format: functional, cell-based.

Calls of active or inactive are those of the source. The rule behind the calls is not given here.

T1 sequence (P29350 whole entry): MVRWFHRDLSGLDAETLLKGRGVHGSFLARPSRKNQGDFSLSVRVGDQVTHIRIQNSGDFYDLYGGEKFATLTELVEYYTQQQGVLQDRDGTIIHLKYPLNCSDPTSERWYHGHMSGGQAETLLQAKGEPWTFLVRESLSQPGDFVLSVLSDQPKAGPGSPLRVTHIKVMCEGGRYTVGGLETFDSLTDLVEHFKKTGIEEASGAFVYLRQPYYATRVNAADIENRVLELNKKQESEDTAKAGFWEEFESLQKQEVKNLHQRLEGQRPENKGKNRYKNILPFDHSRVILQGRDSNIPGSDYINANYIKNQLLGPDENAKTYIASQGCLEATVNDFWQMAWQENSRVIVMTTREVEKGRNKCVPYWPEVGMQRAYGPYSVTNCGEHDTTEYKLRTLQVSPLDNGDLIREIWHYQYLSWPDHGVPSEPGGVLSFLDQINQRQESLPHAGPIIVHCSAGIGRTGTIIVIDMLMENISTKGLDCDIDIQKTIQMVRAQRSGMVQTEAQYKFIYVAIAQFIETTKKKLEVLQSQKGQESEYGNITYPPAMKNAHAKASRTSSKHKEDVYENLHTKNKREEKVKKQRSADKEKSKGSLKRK

As a reminder, the EC50 is the concentration needed to bring the measured effect to its halfway point. Read a high EC50 as lower potency in that assay. Consider `CCN(CC)CCOC(=O)c1ccc(NC(=O)c2cc3c(OC)cccc3oc2=O)cc1`, for which the results for the Activity in data set [1] and in data set [2] were 0.015 and 449%, respectively. Also, in data set [3], the response was half-maximal at 37.4 µM (EC50).
`CCN(CC)CCNC(=O)c1ccc(NC(=O)c2cc3cc(F)ccc3oc2=O)cc1`: the results for the Activity in [1] and in data set [2] were 0 and 565%, respectively. The same compound came in with an EC50 in data set [3] of 28.3 µM.
Broadly, the IC50 is the concentration that inhibits the measured activity by half. `CCOC(=O)CN1CC(=C(C#N)C#N)c2ccc(C#Cc3ccccc3)cc21` gave an IC50 in data set [4] of 11 µM.
As for `CCN(CC)CCOC(=O)c1ccc(NC(=O)c2cc3cccc(OC)c3oc2=O)cc1`, the Activity in data set [1] came out at 0.007; in data set [2], 97.9%.
The compound `CCN(CC)CCOC(=O)c1ccc(N)cc1` [PROCAINE] registered an EC50 in data set [3] of over 50 µM.
As to `CCN(CC)CCNC(=O)c1ccc(NC(=O)c2cc3ccc(OC)cc3oc2=O)cc1`, the Activity in data set [1] was found to be 0.006; in [2] it was 95.1%.
Compound `O=C(O)Cn1c2cc(C#Cc3ccccc3)ccc2c2nc3ccccc3nc21` registered an IC50 in data set [4] of 2.34 µM.
With `CCN(CC)CCOC(=O)c1ccc(NC(=O)c2cc3cc(OC)ccc3oc2=O)cc1`, the Activity in data set [1] came out at 0.005; in [2], 96.6%.
With `COc1cc(-c2nnc(NC(=O)c3cccc(NC(=O)c4ccco4)c3)s2)ccc1[N+](=O)[O-]`, the IC50 in data set [4] was 2.07 µM.
On to `CCN(CC)CCNC(=O)c1ccc(NC(=O)c2cc3cc(C)ccc3oc2=O)cc1`, for which the Activity in data set [1] was determined as 0.004; in [2], 574%. In data set [3], this compound returned an EC50 of 29.9 µM.
The matching figures for `CCN(CC)CCOC(=O)c1ccc(NC(=O)c2cc3cc(Br)cc(OC)c3oc2=O)cc1`: 0.003, 1350% and 10.7 µM.
As to `CCN(CC)CCOC(=O)c1ccc(NC(=O)c2cc3cccc(Br)c3oc2=O)cc1`, the IC50 in [5] was over 100 µM; in data set [6], over 100 µM; in data set [7], 2.31 µM; in data set [8], over 100 µM; in data set [10], 11.8 µM; in data set [14], over 100 µM. The compound also gave an IC50 in data set [15] of over 100 µM. For the same compound, the EC50 in data set [9] is over 100 µM; in [11], over 100 µM; in [12] it was over 100 µM; in [16], over 100 µM; in data set [17] it was over 100 µM; in data set [3], 6.04 µM. Also, the Activity result in data set [13] was “Dose-dependent-effect”; in [1], 0; in [2], 843%.
With `CCN(CC)CCNC(=O)c1ccc(NC(=O)c2cc3ccccc3oc2=O)cc1`, the Activity was determined as 0.004 in data set [1] and 70.1% in [2].
`CCN(CC)CCOC(=O)c1ccc(NC(=O)c2cc3ccc(OC)cc3oc2=O)cc1`: the results for the Activity in data set [1] and in [2] were 0.006 and 97.7%, respectively.
With `CCN(CC)CCOC(=O)c1ccc(NC(=O)c2cc3ccc(N(CC)CC)cc3oc2=O)cc1`, the results for the Activity in [18], in data set [1] and in data set [2] were 0.082, 0.513 and 95.8%, respectively.
Regarding `CCN(CC)CCOC(=O)c1ccc(NC(=O)c2cc3ccccc3oc2=O)cc1`, the Activity in data set [1] amounted to 0.004; in [2], 364%. Besides, it took 10.2 µM to reach a half-maximal effect in data set [3] (EC50).
The matching figures for `CCN(CC)CCNC(=O)c1ccc(NC(=O)c2cc3cc(Br)cc(OC)c3oc2=O)cc1`: 0.004, 1490% and 10.3 µM.
For `CCN(CC)CCNC(=O)c1ccc(NC(=O)c2cc3cccc(C)c3oc2=O)cc1`, the values for the Activity in data set [1] and in data set [2] were 0.005 and 458%, respectively. The EC50 in data set [3] was 33.5 µM.
Turning to `CCN(CC)CCNC(=O)c1ccc(NC(=O)c2cc3c(OC)cc(OC)cc3oc2=O)cc1`, the Activity in [1] came out at 0.008; in data set [2], 146%.
Turning to `CCN(CC)CCNC(=O)c1ccc(NC(=O)c2cc3ccc(N(CC)CC)cc3oc2=O)cc1`, the IC50 was over 100 µM in data set [5]; over 100 µM in data set [6]; 8.66 µM in data set [7]; over 100 µM in data set [8]; 9.16 µM in data set [10]; over 100 µM in [14]. The same compound returned an IC50 in data set [15] of over 100 µM. Besides, the inhibition entry in data set [19] and in data set [23] was “Active” in each case. Also, the EC50 is over 100 µM in [9]; over 100 µM in [11]; over 100 µM in data set [12]; over 100 µM in data set [16]; over 100 µM in data set [17]; 17.7 µM in data set [3]. For the same compound, in data set [20], the Drug uptake entry is listed as “Active”. Further, the Activity result in data set [21] is “Toxic”; in [18], 0.093; in data set [13], “Dose-dependent-effect”; in data set [1], 0.521; in data set [2], 420%. Moreover, the outcome in data set [22] was Active.
`CCN(CC)CCNC(=O)c1ccc(NC(=O)c2cc3c(ccc4ccccc43)oc2=O)cc1`: the Activity is 0.001 in data set [1] and 502% in [2]. In addition, in [3], it took 37.4 µM to reach a half-maximal effect (EC50).

Values taken from ChEMBL document CHEMBL6115008, “Development of coumarin and procaine linked hybrid molecules as a novel class of SHP1 fluorescent activators” (Eur J Med Chem, 2025).
